Data as given in ChEMBL document CHEMBL3244119, “Synthesis and hypoglycemic activity of S-acyl derivatives of 3-mercaptopicolinic acid” (J Med Chem, 1977).

Key:
[1] = Stability of the compound assessed as rate of 3-mercaptopicolinic acid formation at 10 mg at pH 6 by DTNB method; assay type: physicochemical
Rattus norvegicus [2] = assay: Hypoglycemic activity in 48 hrs fasted rat assessed as reduction in glucose level at 300 mg/kg, po measured after 4 hrs; assay type: functional; design: scale not given: the % may be the effect or the level left
Rattus norvegicus [3] = assay: Hypoglycemic activity in 48 hrs fasted rat assessed as reduction in glucose level at 300 mg/kg, po measured after 2 hrs; assay type: functional; design: scale not given: the % may be the effect or the level left
Rattus norvegicus [4] = assay: Hypoglycemic activity in 48 hrs fasted rat assessed as reduction in glucose level at 300 mg/kg, po measured after 1 hr; assay type: functional; design: scale not given: the % may be the effect or the level left
[5] = Half life of the compound at pH 6; assay type: physicochemical
[6] = Stability of the compound assessed as rate of 3-mercaptopicolinic acid formation at 10 mg at pH 8 by DTNB method; assay type: physicochemical
[7] = Half life of the compound at pH 8; assay type: physicochemical
Rattus norvegicus [8] = assay: Hypoglycemic activity in 48 hrs fasted rat assessed as reduction in glucose level at 150 mg/kg, po measured after 4 hrs; assay type: functional; design: scale not given: the % may be the effect or the level left
Rattus norvegicus [9] = assay: Hypoglycemic activity in 48 hrs fasted rat assessed as reduction in glucose level at 150 mg/kg, po measured after 2 hrs; assay type: functional; design: scale not given: the % may be the effect or the level left
Rattus norvegicus [10] = assay: Hypoglycemic activity in 48 hrs fasted rat assessed as reduction in glucose level at 150 mg/kg, po measured after 1 hr; assay type: functional; design: scale not given: the % may be the effect or the level left
Rattus norvegicus [11] = assay: Hypoglycemic activity in 48 hrs fasted rat assessed as reduction in glucose level at 125 mg/kg, po measured after 2 hrs; assay type: functional; design: scale not given: the % may be the effect or the level left
Rattus norvegicus [12] = assay: Hypoglycemic activity in 48 hrs fasted rat assessed as reduction in glucose level at 125 mg/kg, po measured after 1 hr; assay type: functional; design: scale not given: the % may be the effect or the level left
Rattus norvegicus [13] = assay: Hypoglycemic activity in 48 hrs fasted rat assessed as reduction in glucose level at 125 mg/kg, po measured after 4 hrs; assay type: functional; design: scale not given: the % may be the effect or the level left
Rattus norvegicus [14] = assay: Hypoglycemic activity in 48 hrs fasted rat assessed as reduction in glucose level at 200 mg/kg, po measured after 2 hrs; assay type: functional; design: scale not given: the % may be the effect or the level left
Rattus norvegicus [15] = assay: Hypoglycemic activity in 48 hrs fasted rat assessed as reduction in glucose level at 200 mg/kg, po measured after 1 hr; assay type: functional; design: scale not given: the % may be the effect or the level left
Rattus norvegicus [16] = assay: Hypoglycemic activity in 48 hrs fasted rat assessed as reduction in glucose level at 200 mg/kg, po measured after 4 hrs; assay type: functional; design: scale not given: the % may be the effect or the level left
Rattus norvegicus [17] = assay: Hypoglycemic activity in 48 hrs fasted rat assessed as reduction in glucose level at 250 mg/kg, po measured after 1 hr; assay type: functional; design: scale not given: the % may be the effect or the level left
Rattus norvegicus [18] = assay: Hypoglycemic activity in 48 hrs fasted rat assessed as reduction in glucose level at 250 mg/kg, po measured after 2 hrs; assay type: functional; design: scale not given: the % may be the effect or the level left
Rattus norvegicus [19] = assay: Hypoglycemic activity in 48 hrs fasted rat assessed as reduction in glucose level at 250 mg/kg, po measured after 4 hrs; assay type: functional; design: scale not given: the % may be the effect or the level left
[20] = Stability of the compound in 3 N HCl-ethanol […] measured after refluxing for 2.5 hrs by TLC; assay type: physicochemical; details: buffer
[21] = Stability of the compound in 3 N HCl at room temperature after 3.5 hrs by TLC; assay type: physicochemical; details: buffer
[22] = Stability of the compound assessed as compound remaining at equilibrium at 10 mg at pH 6 by DTNB method; assay type: physicochemical

With `COc1ccc(C(=O)Sc2cccnc2C(=O)O)cc1` the Activity [1] was 0.0038 h⁻¹, the Activity (Rattus norvegicus [2]) was 19% and the Activity (Rattus norvegicus [3]) was -25%. For the same molecule, the Activity (Rattus norvegicus [4]) was 16%, the half-life [5] was 43.9 h and the Activity [6] was 0.0158 h⁻¹. For the same molecule, the half-life [7] was 182 h.

Work on `CC(=O)Nc1ccc(C(=O)Sc2cccnc2C(=O)O)cc1` yielded an Activity (Rattus norvegicus [8]) of 7%, an Activity (Rattus norvegicus [9]) of -14% and an Activity (Rattus norvegicus [10]) of -18%.

Molecule `NS(=O)(=O)c1ccc(C(=O)Sc2cccnc2C(=O)O)cc1` has an Activity (Rattus norvegicus [8]) of 3%, an Activity (Rattus norvegicus [9]) of -16% and an Activity (Rattus norvegicus [10]) of 20%.

For `O=C(O)c1ncccc1S`, the Activity (Rattus norvegicus [8]) was -56%, the Activity (Rattus norvegicus [9]) was -44% and the Activity (Rattus norvegicus [10]) was -32%.

In the case of `CCCCCCCCCCC(=O)Sc1cccnc1C(=O)O`, the Activity (Rattus norvegicus [8]) is reported as -9%, the Activity (Rattus norvegicus [9]) is reported as 3% and the Activity (Rattus norvegicus [10]) is reported as -14%.

In the case of `O=C(Sc1cccnc1C(=O)O)c1ccc(C(F)(F)F)cc1`, the Activity (Rattus norvegicus [11]) is reported as 41%, the Activity (Rattus norvegicus [12]) is reported as 28% and the Activity [1] is reported as 0.0688 h⁻¹. It also gave an Activity (Rattus norvegicus [2]) of -75%, an Activity (Rattus norvegicus [3]) of -54% and an Activity (Rattus norvegicus [4]) of -26%. The Activity (Rattus norvegicus [13]) was 32%, the half-life [5] was 3 h and the Activity [6] was 0.231 h⁻¹. It also gave a half-life [7] of 10.1 h.

Work on `O=C(Sc1cccnc1C(=O)O)c1ccccc1Cl` yielded an Activity [1] of 0.0091 h⁻¹, an Activity (Rattus norvegicus [2]) of -40% and an Activity (Rattus norvegicus [3]) of -39%. It also gave an Activity (Rattus norvegicus [4]) of -35%, a half-life [5] of 27.2 h and an Activity [6] of 0.0255 h⁻¹. For the same molecule, the half-life [7] was 75.8 h.

`CCCCNC(=O)NS(=O)(=O)c1ccc(C)cc1` [TOLBUTAMIDE] gave an Activity (Rattus norvegicus [14]) of 47%, an Activity (Rattus norvegicus [15]) of 28% and an Activity (Rattus norvegicus [16]) of 48%.

In the case of `CCC(=O)Sc1cccnc1C(=O)O`, the Activity (Rattus norvegicus [17]) is reported as 22%, the Activity (Rattus norvegicus [18]) is reported as 52% and the Activity (Rattus norvegicus [19]) is reported as 55%.

`O=C(Sc1cccnc1C(=O)O)c1cccc(Cl)c1` showed an Activity [1] of 0.0468 h⁻¹, an Activity (Rattus norvegicus [2]) of -42% and an Activity (Rattus norvegicus [3]) of -32%. The Activity (Rattus norvegicus [4]) was -27%, the half-life [5] was 4.7 h and the Activity [6] was 0.148 h⁻¹. For the same molecule, the half-life [7] was 14.8 h.

In the case of `O=C(Sc1cccnc1C(=O)O)c1ccccc1`, the Stability [20] is reported as “Stable”, the Activity [1] is reported as 0.0115 h⁻¹ and the Activity (Rattus norvegicus [2]) is reported as -56%. It also gave an Activity (Rattus norvegicus [3]) of -42%, an Activity (Rattus norvegicus [4]) of -27% and a half-life [5] of 21.1 h. The Stability [21] was “Stable”, the Activity [6] was 0.0329 h⁻¹ and the half-life [7] was 60.1 h.

Molecule `O=C(Sc1cccnc1C(=O)O)c1ccc([N+](=O)[O-])cc1` has an Activity [1] of 0.147 h⁻¹, an Activity (Rattus norvegicus [2]) of 12% and an Activity (Rattus norvegicus [3]) of 0%. The Activity (Rattus norvegicus [4]) was 0%, the Stability [22] was 24.3 mol% and the half-life [5] was 1.4 h. It also gave an Activity [6] of 0.513 h⁻¹ and a half-life [7] of 4.7 h.

Work on `N#Cc1ccc(C(=O)Sc2cccnc2C(=O)O)cc1` yielded an Activity (Rattus norvegicus [8]) of 0%, an Activity (Rattus norvegicus [9]) of -16% and an Activity (Rattus norvegicus [10]) of -18%.

Work on `CC(C)(C)C(=O)Sc1cccnc1C(=O)O` yielded an Activity (Rattus norvegicus [11]) of 42%, an Activity (Rattus norvegicus [12]) of 21% and an Activity [1] of 0.006 h⁻¹. The Activity (Rattus norvegicus [2]) was -70%, the Activity (Rattus norvegicus [3]) was -43% and the Activity (Rattus norvegicus [4]) was -20%. For the same molecule, the Activity (Rattus norvegicus [13]) was 52%, the half-life [5] was 61.1 h and the Activity [6] was 0.0114 h⁻¹. It also gave a half-life [7] of 115 h.

With `O=C(Sc1cccnc1C(=O)O)c1cccc(C(F)(F)F)c1` the Activity [1] was 0.0695 h⁻¹, the Activity (Rattus norvegicus [2]) was 45% and the Activity (Rattus norvegicus [3]) was -38%. For the same molecule, the Activity (Rattus norvegicus [4]) was -35%, the half-life [5] was 3.9 h and the Activity [6] was 0.179 h⁻¹. It also gave a half-life [7] of 10 h.

`O=C(Nc1ccc(C(=O)Sc2cccnc2C(=O)O)cc1)c1ccccc1` showed an Activity (Rattus norvegicus [8]) of -4%, an Activity (Rattus norvegicus [9]) of -20% and an Activity (Rattus norvegicus [10]) of -20%.

In the case of `Cc1ccc(C(=O)Sc2cccnc2C(=O)O)cc1`, the Activity [1] is reported as 0.0087 h⁻¹, the Activity (Rattus norvegicus [2]) is reported as -4% and the Activity (Rattus norvegicus [3]) is reported as -16%. For the same molecule, the Activity (Rattus norvegicus [4]) was -21%, the half-life [5] was 25.6 h and the Activity [6] was 0.0271 h⁻¹. For the same molecule, the half-life [7] was 80.1 h.

`O=C(Sc1cccnc1C(=O)O)c1ccc(F)cc1` showed an Activity [1] of 0.0062 h⁻¹, an Activity (Rattus norvegicus [2]) of -44% and an Activity (Rattus norvegicus [3]) of -47%. The Activity (Rattus norvegicus [4]) was -29%, the half-life [5] was 12.1 h and the Activity [6] was 0.0575 h⁻¹. It also gave a half-life [7] of 111 h.

For `CN(C)c1ccc(C(=O)Sc2cccnc2C(=O)O)cc1`, the Activity (Rattus norvegicus [8]) was -8%, the Activity (Rattus norvegicus [9]) was -2% and the Activity (Rattus norvegicus [10]) was -12%.

In the case of `NC(=O)c1ccc(C(=O)Sc2cccnc2C(=O)O)cc1`, the Activity (Rattus norvegicus [8]) is reported as -25%, the Activity (Rattus norvegicus [9]) is reported as -6% and the Activity (Rattus norvegicus [10]) is reported as -22%.

In the case of `COC(=O)c1ccc(C(=O)Sc2cccnc2C(=O)O)cc1`, the Activity (Rattus norvegicus [8]) is reported as 1%, the Activity (Rattus norvegicus [9]) is reported as -20% and the Activity (Rattus norvegicus [10]) is reported as -17%.

With `COc1cccc(C(=O)Sc2cccnc2C(=O)O)c1` the Activity [1] was 0.0109 h⁻¹, the Activity (Rattus norvegicus [2]) was -30% and the Activity (Rattus norvegicus [3]) was -24%. For the same molecule, the Activity (Rattus norvegicus [4]) was -15%, the half-life [5] was 11.9 h and the Activity [6] was 0.0583 h⁻¹. For the same molecule, the half-life [7] was 63.7 h.

With `O=C(Sc1cccnc1C(=O)O)c1ccc(Cl)cc1` the Activity (Rattus norvegicus [11]) was 34%, the Activity (Rattus norvegicus [12]) was 12% and the Activity [1] was 0.0261 h⁻¹. For the same molecule, the Activity (Rattus norvegicus [2]) was -57%, the Activity (Rattus norvegicus [3]) was -34% and the Activity (Rattus norvegicus [4]) was -43%. The Activity (Rattus norvegicus [13]) was 40%, the half-life [5] was 7.9 h and the Activity [6] was 0.0879 h⁻¹. The half-life [7] was 26.6 h.
